The subject of assay [1] is RyR2. The assay is described as follows: Single channel electrophysiology of RyR2 channels inserted into lipid bilayers (exposure to peptide). The assay is classed as biochemical, sheep (cardiac SR). On the procedure: Cardiac SR was prepared from mature female crossbred sheep hearts, and skeletal SR vesicles were isolated from the back and leg muscles of mature female New Zealand white rabbits[29],[54] with approval from the ANU Animal Experiment Ethics Committee Protocol Number A2015/35. […] Solutions for vesicle incorporation contained (mM): cis 230 caesium methanesulfonate (CsMS); 20 CsCl; 1 CaCl2 and 10 […] (TES) pH 7.4 and trans 30 CsMS; 20 CsCl; 1 CaCl2 10 TES; pH 7.4. […] Following incorporation, 200 mM CsMS was added to the trans solution and the cis solution exchanged with recording solution containing (mM): 230 CsMS; 20 CsCl; 0.001 CaCl2;10 TES and pH 7.4, with [Ca^2+] set by a [BAPTA] determined using a Ca^2+ electrode. The cytoplasmic and luminal solutions contained 1 μM and 1 mM Ca^2+ respectively, with symmetrical 250/250 mM CsMS. Bilayer voltage was switched between +40 mV and −40 mV (cytoplasmic voltage relative to grounded luminal solution) every 30 s. The activity of the RyR channels used here included 1 µM Ca^2+ in the cytoplasmic solution and 1 mM Ca^2+ in the luminal solution[29],[55]. Electrophysiology experiments were analysed using Channel 2 (P.W. Gage, M. Smith, Australian National University) and Channel 3 (N.W. Laver, University of Newcastle, Australia) software, available from the authors upon request. Statistical analyses were performed using Microsoft Excel (Office 365). […] Following most incorporation events, a single channel only was active in the bilayer and channel open probability (Po), mean open time (To), mean closed time (Tc) and open event frequency (Fo) were measured. When 2–4 channels were active in a bilayer, PO was approximated from the fractional mean current (I’F), i.e., mean current divided by maximum current. I’F is equal to PO in a single channel and indicates the average PO of multiple channels in a bilayer. […] Experiments at UN also included a minority of multi-channel experiments. The bilayer rigs, solution composition, source of channels, data acquisition and analyses methods were all identical.
Statistical analysis of single channel data was performed using Excel spreadsheets and embedded Students t-test functions or a sign test as indicated in the graphs in Figs. 1 and 3.

In assay [2] the test system is NaV1.7. The assay is described as follows: FLIPR Ca2+ assay, inhibition of endogenous NaV1.7. Type of assay: cell-based, human. The following applies: for Ca2+ response relative to control response: 3 µM Xt3a pre-treatment, veratridine 4 μM/OD1 300 nM, over 300 s. The protocol: SH-SY5Y human neuroblastoma cells (European Collection of Authenticated Cell Culture, Sigma Aldrich, 94030304-1VL) were cultured in RPMI media (ThermoFisher Scientific, Scoresby, Australia) supplemented with 15% foetal bovine serum and L-glutamine (1 mM) and passaged at approximately 80% confluency with TrypLE Express (Thermo Fisher, Australia). For fluorescence imaging, cells were plated on CellBIND (Corning) 384-well black-walled imaging plates at a density of 20,000–30,000 cells/well in complete media and cultured for 48 h at 37 °C/5% CO2.
Briefly, SH-SY5Y cells were loaded with Calcium 4 no-wash dye (Molecular Devices) diluted in physiological salt solution (composition in mM: NaCl 140, D-glucose 11.5, KCl 5.9, MgCl2 1.4, NaH2PO4 1.2, NaHCO3 5, CaCl2 1.8, HEPES 10) for 30 min at 37 °C. A two-addition FLIPR^Tetra (Molecular Devices) protocol using the following settings was used to measure fluorescence responses: excitation 470–495 nm; emission 515–575 nm; excitation intensity 80%; excitation duration 0.8 s; gain 140; read interval 1/s; read number 300/addition. Responses mediated via endogenously expressed ion channels were elicited by addition of: choline (30 μM)/PNU-120596 (10 μM) for α7 nAChR-mediated responses; nicotine (30 μM) for α3β2/α3β4 nAChR-mediated responses; KCl (90 mM)/CaCl2 (5 mM) for CaV1.3-mediated responses; KCl (90 mM)/CaCl2 (5 mM) + nifedipine (10 μM) for CaV2.2-mediated responses; vertridine (70 μM) for NaV1.2-mediated responses; and veratridine (4 μM)/OD1 (300 nM) for NaV1.7-mediated responses. Raw fluorescence readings were converted to response over baseline using the analysis tool Screenworks 3.1.1.4 (Molecular Devices) and were expressed relative to the maximum increase in fluorescence of control responses and plotted using GraphPad Prism 9.3.1.
In the cell-based FLIPR assays statistical analysis was performed using GraphPad Prism 9.3.1. Statistical significance was defined as p < 0.05, and determined by one-sample t-test assessing difference to the control value of 100%. In α7 nAChR, α3-containing nAChR, CaV1.3, CaV2.2, NaV1.2 and NaV1.7 channels (Supplementary Fig. 5B), with distribution (t) and degrees of freedom (df) being: t = 0.9683, df = 2 (α7); t = 1.338, df = 2 (α3); t = 1.775, df = 2 (NaV1.2); t = 1.478

On to φ-Xibalbin3-Xt3a, for which, in assay [1], the “channel activity during exposure” value was “no significant change in activity during exposure to the toxin”. In assay [1] (1 nM and 10 nM), the channel activity entry is recorded as “weak trend towards increased activity”. The “openings to the maximum conductance” value in assay [1] (1 nM to 1 μM) is “did not show any consistent changes in openings to the maximum conductance”. In assay [1] (10 nM Xt3a, −40 mV, prolonged gating to substate levels), the “substate level, % of maximum conductance” value is on record as below 50%. The “Ca2+ response relative to control response” value is 99.4493% in assay [2] (replicate 1), 100.583% in assay [2] (replicate 2) and 102.164% in assay [2] (replicate 3). Besides, the “inhibition of Ca2+ responses” value in assay [2] (Xt3a 3 µM) is “did not inhibit Ca^2+ responses”.

The values are drawn from publication PMC9950431, “A bivalent remipede toxin promotes calcium release via ryanodine receptor activation” (Nature Communications, 2023).
